Converted amounts (≈) assume the structure as drawn. The source made the active and inactive calls. The calls are words filed in the database; no cut-off is given here.
Tests used:
[1] = test system: Staphylococcus epidermidis; test: Antibacterial activity against methicillin-resistant Staphylococcus epidermidis after overnight incubation by micro broth dilution analysis; format: functional
[2] = test system: Staphylococcus aureus; test: Induction of cellular content release in methicillin-resistant Staphylococcus aureus assessed as DNA content by measuring optical density at 260 nm at MIC after 240 mins by UV-visible spectrophotometric analysis; format: functional
[3] = test system: Staphylococcus haemolyticus; test: Antibacterial activity against methicillin-resistant Staphylococcus haemolyticus assessed as zone of inhibition at 400 ng/mL after 24 hrs by agar disc diffusion method; format: functional; conditions: read-out: IZ
[4] = test system: Staphylococcus aureus; test: Antibacterial activity against methicillin-resistant Staphylococcus aureus assessed as zone of inhibition at 400 ng/mL after 24 hrs by agar disc diffusion method; format: functional; conditions: read-out: IZ
[5] = test system: Staphylococcus haemolyticus; test: Antibacterial activity against methicillin-resistant Staphylococcus haemolyticus after overnight incubation by micro broth dilution analysis; format: functional
[6] = test system: Staphylococcus haemolyticus; test: Antibacterial activity against methicillin-resistant Staphylococcus haemolyticus assessed as zone of inhibition at 200 ng/mL after 24 hrs by agar disc diffusion method; format: functional; conditions: read-out: IZ
[7] = test system: Staphylococcus epidermidis; test: Antibacterial activity against methicillin-resistant Staphylococcus epidermidis assessed as zone of inhibition at 200 ng/mL after 24 hrs by agar disc diffusion method; format: functional; conditions: read-out: IZ
[8] = test system: Staphylococcus aureus; test: Antibacterial activity against methicillin-resistant Staphylococcus aureus after overnight incubation by micro broth dilution analysis; format: functional
[9] = test system: Staphylococcus haemolyticus; test: Antibacterial activity against methicillin-resistant Staphylococcus haemolyticus assessed as zone of inhibition at 800 ng/mL after 24 hrs by agar disc diffusion method; format: functional; conditions: read-out: IZ
[10] = test system: Staphylococcus aureus; test: Antibiofilm activity against methicillin-resistant Staphylococcus aureus at MIC after 24 hrs by crystal violet staining-based UV-visible spectrophotometric analysis; format: functional, organism-based
[11] = test system: Staphylococcus aureus; test: Antibacterial activity against methicillin-resistant Staphylococcus aureus assessed as zone of inhibition at 50 ug/mL after 24 hrs by agar disc diffusion method; format: functional; conditions: read-out: IZ
[12] = test system: Staphylococcus aureus; test: Induction of pore formation in methicillin-resistant Staphylococcus aureus cell membrane assessed as increase in ferricyanide mediated DNA damage after 2 hrs by DCPIP dye-based cyclic voltammetric analysis; format: functional, organism-based
[13] = test system: Staphylococcus haemolyticus; test: Antibacterial activity against methicillin-resistant Staphylococcus haemolyticus assessed as zone of inhibition at 50 ug/mL after 24 hrs by agar disc diffusion method; format: functional; conditions: read-out: IZ
[14] = test system: Staphylococcus epidermidis; test: Antibacterial activity against methicillin-resistant Staphylococcus epidermidis assessed as zone of inhibition at 800 ng/mL after 24 hrs by agar disc diffusion method; format: functional; conditions: read-out: IZ
[15] = test system: Staphylococcus aureus; test: Antibacterial activity against methicillin-resistant Staphylococcus aureus assessed as zone of inhibition at 800 ng/mL after 24 hrs by agar disc diffusion method; format: functional; conditions: read-out: IZ
[16] = test system: Staphylococcus aureus; test: Antibiofilm activity against methicillin-resistant Staphylococcus aureus assessed as optical density at 492 nm at 1 to 2 times MIC after 24 hrs by crystal violet staining-based UV-visible spectrophotometric analysis; format: functional
[17] = test system: Staphylococcus epidermidis; test: Antibacterial activity against methicillin-resistant Staphylococcus epidermidis assessed as zone of inhibition at 400 ng/mL after 24 hrs by agar disc diffusion method; format: functional; conditions: read-out: IZ
[18] = test system: Staphylococcus aureus; test: Antibacterial activity against methicillin-resistant Staphylococcus aureus assessed as zone of inhibition at 200 ng/mL after 24 hrs by agar disc diffusion method; format: functional; conditions: read-out: IZ
[19] = test system: Staphylococcus epidermidis; test: Antibacterial activity against methicillin-resistant Staphylococcus epidermidis assessed as zone of inhibition at 20 ug/mL after 24 hrs by agar disc diffusion method; format: functional; conditions: read-out: IZ
[20] = test system: Staphylococcus aureus; test: Induction of pore formation in methicillin-resistant Staphylococcus aureus cell membrane assessed as increase in ferricyanide mediated potassium efflux after 2 hrs by DCPIP dye-based cyclic voltammetric analysis; format: functional, organism-based
[21] = test system: Staphylococcus aureus; test: Induction of pore formation in methicillin-resistant Staphylococcus aureus cell membrane assessed as increase in ferricyanide mediated cellular leakage after 2 hrs by DCPIP dye-based cyclic voltammetric analysis; format: functional, organism-based
[22] = test system: Staphylococcus aureus; test: Antibiofilm activity against methicillin-resistant Staphylococcus aureus planktonic biofilm assessed as optical density at 492 nm at MIC after 24 hrs by crystal violet staining-based UV-visible spectrophotometric analysis; format: functional
[23] = test system: Staphylococcus epidermidis; test: Antibacterial activity against methicillin-resistant Staphylococcus epidermidis assessed as zone of inhibition at 30 ug/mL after 24 hrs by agar disc diffusion method; format: functional; conditions: read-out: IZ
[24] = test system: Staphylococcus aureus; test: Antibacterial activity against methicillin-resistant Staphylococcus aureus assessed as zone of inhibition at 30 ug/mL after 24 hrs by agar disc diffusion method; format: functional; conditions: read-out: IZ
[25] = test system: Staphylococcus haemolyticus; test: Antibacterial activity against methicillin-resistant Staphylococcus haemolyticus assessed as zone of inhibition at 30 ug/mL after 24 hrs by agar disc diffusion method; format: functional; conditions: read-out: IZ
[26] = test system: Staphylococcus aureus; test: Antibiofilm activity against methicillin-resistant Staphylococcus aureus at 2 times MIC after 24 hrs by crystal violet staining-based UV-visible spectrophotometric analysis; format: functional, organism-based
[27] = test system: Staphylococcus aureus; test: Antibacterial activity against methicillin-resistant Staphylococcus aureus assessed as zone of inhibition at 10 ug/mL after 24 hrs by agar disc diffusion method; format: functional; conditions: read-out: IZ
[28] = test system: Staphylococcus epidermidis; test: Antibacterial activity against methicillin-resistant Staphylococcus epidermidis assessed as zone of inhibition at 10 ug/mL after 24 hrs by agar disc diffusion method; format: functional; conditions: read-out: IZ
[29] = test system: Staphylococcus haemolyticus; test: Antibacterial activity against methicillin-resistant Staphylococcus haemolyticus assessed as zone of inhibition at 10 ug/mL after 24 hrs by agar disc diffusion method; format: functional; conditions: read-out: IZ
[30] = test system: Staphylococcus aureus; test: Antibacterial activity against methicillin-resistant Staphylococcus aureus at MIC by SEM analysis; format: functional, organism-based; conditions: TDE = time-dependent effect
[31] = test system: Staphylococcus aureus; test: Induction of membrane disruption in methicillin-resistant Staphylococcus aureus at MIC up to 24 hrs by SEM analysis; format: functional, organism-based
[32] = test system: Staphylococcus aureus; test: Antibiofilm activity against methicillin-resistant Staphylococcus aureus assessed as reduction in adherence of planktonic bacteria at MIC up to 24 hrs by SEM analysis; format: functional, organism-based

Row | Structure (SMILES) | MIC99 [1] | OD [2] | zone of inhibition at 0.4 µg/mL [3] | zone of inhibition at 0.4 µg/mL [4] | MIC99 [5] | zone of inhibition at 0.2 µg/mL [6] | zone of inhibition at 0.2 µg/mL [7] | MIC99 [8] | zone of inhibition at 0.8 µg/mL [9] | Activity [10] | zone of inhibition at 50 µg/mL [11] | Activity [12] | zone of inhibition at 50 µg/mL [13] | zone of inhibition at 0.8 µg/mL [15] | OD [16] | zone of inhibition at 0.2 µg/mL [18] | zone of inhibition at 20 µg/mL [19] | Activity [20] | Activity [21] | OD [22] | other results
1 | O=S(=O)(F)/C=C/c1ccc(Cl)cc1 | 0.83 µg/mL (≈ 3.76 µM) | 1.28 | 5.1 mm | 8.2 mm | 0.846 µg/mL (≈ 3.83 µM) | 4.1 mm | 5.2 mm | 0.818 µg/mL (≈ 3.71 µM) | 71 mm | Active | 8.2 mm | Active | 7.2 mm | 10 mm | 0.66 | 6.3 mm | 10.3 mm | Active | Active | 0.66 | zone of inhibition at 0.8 µg/mL [14]: 8.4 mm; zone of inhibition at 0.4 µg/mL [17]: 7.2 mm
2 | N#Cc1ccc(/C=C/S(=O)(=O)F)cc1 | 0.831 µg/mL (≈ 3.93 µM) | 1.42 | 5.1 mm | 7.3 mm | 0.847 µg/mL (≈ 4.01 µM) | 4.2 mm | 5.2 mm | 0.84 µg/mL (≈ 3.98 µM) | 6.2 mm | Active | 11.4 mm | Active | 7.2 mm | 8.5 mm | 0.68 | 6.1 mm | 7.5 mm | Active | Active | 0.685 | zone of inhibition at 0.8 µg/mL [14]: 7.6 mm; zone of inhibition at 0.4 µg/mL [17]: 6.3 mm
3 | NC[C@H]1O[C@H](O[C@H]2[C@H](O)[C@@H](O[C@H]3O[C@H](CO)[C@@H](O)[C@H](N)[C@H]3O)[C@H](N)C[C@@H]2N)[C@H](O)[C@@H](O)[C@@H]1O [KANAMYCIN] | 30.1 µg/mL (≈ 62.2 µM) |  |  |  | 21.2 µg/mL (≈ 43.7 µM) |  |  | 9.12 µg/mL (≈ 18.8 µM) |  |  |  |  |  |  |  |  |  |  |  | 0.715 | zone of inhibition at 30 µg/mL [23]: 8.3 mm; zone of inhibition at 30 µg/mL [24]: 12 mm; zone of inhibition at 30 µg/mL [25]: 4.81 mm; Activity [26]: Active
4 | CS(=O)(=O)c1cccc(/C=C/S(=O)(=O)F)c1 | 44.2 µg/mL (≈ 167 µM) | 1.86 |  | 7.1 mm | 39.1 µg/mL (≈ 148 µM) |  |  | 0.81 µg/mL (≈ 3.06 µM) |  | Active | 10 mm | Active | 6.3 mm | 10.2 mm | 0.61 | 6.4 mm | 6.2 mm | Active | Active | 0.612 | 
5 | CCn1cc(C(=O)O)c(=O)c2cc(F)c(N3CCNCC3)cc21 [NORFLOXACIN] | 0.73 µg/mL (≈ 2.29 µM) |  |  |  | 0.58 µg/mL (≈ 1.82 µM) |  |  | 0.61 µg/mL (≈ 1.91 µM) |  |  |  |  |  |  |  |  |  |  |  | 0.695 | zone of inhibition at 30 µg/mL [23]: 9.07 mm; zone of inhibition at 30 µg/mL [24]: 10 mm; zone of inhibition at 30 µg/mL [25]: 12.7 mm; Activity [26]: Active
6 | CC1(C)S[C@@H]2[C@H](NC(=O)[C@H](N)c3ccccc3)C(=O)N2[C@H]1C(=O)O [AMPICILLIN] | 7.15 µg/mL (≈ 20.5 µM) |  |  |  | 10.1 µg/mL (≈ 28.9 µM) |  |  | 0.12 µg/mL (≈ 0.343 µM) |  |  |  |  |  |  |  |  |  |  |  | 0.745 | Activity [26]: Active; zone of inhibition at 10 µg/mL [27]: 9.95 mm; zone of inhibition at 10 µg/mL [28]: 11.7 mm; zone of inhibition at 10 µg/mL [29]: 7.6 mm
7 | O=S(=O)(F)/C=C/c1cc(Cl)nc(Cl)c1 | 0.84 µg/mL (≈ 3.28 µM) | 1.85 | 6.5 mm | 9.2 mm | 0.842 µg/mL (≈ 3.29 µM) | 5.2 mm | 5.4 mm | 0.811 µg/mL (≈ 3.17 µM) | 7.4 mm | Active | 12.1 mm | Active | 7.2 mm | 11.4 mm | 0.72 | 7.1 mm | 7.1 mm | Active | Active | 0.725 | zone of inhibition at 0.8 µg/mL [14]: 7.2 mm; zone of inhibition at 0.4 µg/mL [17]: 6.3 mm; Activity [30]: Tde; Activity [31]: Active; Activity [32]: Active
